The data set can be described thus: activity coefficient (dimensionless); of the first substance listed, at infinite dilution; xn = mol fraction of the nth substance listed. Conditions: 101 kPa, Liquid, Chromatography, x1 = 0.

Each structure is given as a SMILES string. ± gives the expanded uncertainty stated by the source.

Take `C1=CCCCC1` [cyclohexene] + CCCCC[N+]1(C)CCCCC1.O=S(=O)([N-]S(=O)(=O)C(F)(F)F)C(F)(F)F: the activity coefficient was 3.73 ± 0.25 (308.15 K); 3.63 ± 0.25 (318.15 K); 3.53 ± 0.24 (328.15 K); 3.39 ± 0.23 (338.15 K); 3.3 ± 0.22 (348.15 K); 3.21 ± 0.22 (358.15 K).

`C1CCCCCCC1` [cyclooctane] + CCCCCC[N+]1(C)CCCCC1.O=S(=O)([N-]S(=O)(=O)C(F)(F)F)C(F)(F)F: the activity coefficient is, setting by setting: (308.15 K) 7.57 ± 0.52; (318.15 K) 7.36 ± 0.5; (328.15 K) 7.15 ± 0.49; (338.15 K) 6.87 ± 0.47; (348.15 K) 6.75 ± 0.46; (358.15 K) 6.53 ± 0.45.

With `C1CCCCCCC1` [cyclooctane] + CCCCC[N+]1(C)CCCCC1.O=S(=O)([N-]S(=O)(=O)C(F)(F)F)C(F)(F)F, the activity coefficient was found to be 10.1 ± 0.7 (308.15 K); 9.58 ± 0.65 (318.15 K); 9.06 ± 0.62 (328.15 K); 8.6 ± 0.59 (338.15 K); 8.24 ± 0.56 (348.15 K); 7.8 ± 0.53 (358.15 K).

Take `C1CCCC1` [cyclopentane] + CCCCCC[N+]1(C)CCCCC1.O=S(=O)([N-]S(=O)(=O)C(F)(F)F)C(F)(F)F: the activity coefficient worked out at 3.72 ± 0.25 (308.15 K); 3.59 ± 0.24 (318.15 K); 3.43 ± 0.23 (328.15 K); 3.34 ± 0.23 (338.15 K); 3.24 ± 0.22 (348.15 K); 3.12 ± 0.21 (358.15 K).

`C1CCCC1` [cyclopentane] + CCCCC[N+]1(C)CCCCC1.O=S(=O)([N-]S(=O)(=O)C(F)(F)F)C(F)(F)F: the activity coefficient is, setting by setting: (308.15 K) 4.72 ± 0.32; (318.15 K) 4.5 ± 0.31; (328.15 K) 4.24 ± 0.29; (338.15 K) 3.98 ± 0.27; (348.15 K) 3.82 ± 0.26; (358.15 K) 3.72 ± 0.25.

As for `CCCCCCCCCC` [decane] + CCCCCC[N+]1(C)CCCCC1.O=S(=O)([N-]S(=O)(=O)C(F)(F)F)C(F)(F)F, the activity coefficient came to 23.5 ± 1.6 (308.15 K); 22.2 ± 1.5 (318.15 K); 21.1 ± 1.4 (328.15 K); 20 ± 1.4 (338.15 K); 19.1 ± 1.3 (348.15 K); 18.3 ± 1.3 (358.15 K).

As for `CCCCCCCCCC` [decane] + CCCCC[N+]1(C)CCCCC1.O=S(=O)([N-]S(=O)(=O)C(F)(F)F)C(F)(F)F, the activity coefficient by setting is: (308.15 K) 31.9 ± 2.2; (318.15 K) 29.5 ± 2; (328.15 K) 27.9 ± 1.9; (338.15 K) 26.2 ± 1.8; (348.15 K) 25.1 ± 1.7; (358.15 K) 23.8 ± 1.6.

For `CCCOCCC` [dipropyl ether] + CCCCCC[N+]1(C)CCCCC1.O=S(=O)([N-]S(=O)(=O)C(F)(F)F)C(F)(F)F, the activity coefficient by setting is: (308.15 K) 3.5 ± 0.24; (318.15 K) 3.47 ± 0.24; (328.15 K) 3.44 ± 0.23; (338.15 K) 3.41 ± 0.23; (348.15 K) 3.38 ± 0.23; (358.15 K) 3.37 ± 0.23.

In the case of `CCCOCCC` [dipropyl ether] + CCCCC[N+]1(C)CCCCC1.O=S(=O)([N-]S(=O)(=O)C(F)(F)F)C(F)(F)F, the activity coefficient turned out to be 4.17 ± 0.28 (308.15 K); 4.13 ± 0.28 (318.15 K); 4.05 ± 0.28 (328.15 K); 4.02 ± 0.27 (338.15 K); 3.98 ± 0.27 (348.15 K); 3.96 ± 0.27 (358.15 K).

Take `CCO` [ethanol] + CCCCCC[N+]1(C)CCCCC1.O=S(=O)([N-]S(=O)(=O)C(F)(F)F)C(F)(F)F: the activity coefficient (308.15 K) was 1.81 ± 0.12; the activity coefficient (318.15 K) amounted to 1.63 ± 0.11; the activity coefficient (328.15 K) is 1.49 ± 0.1; the activity coefficient (338.15 K) came out at 1.37 ± 0.09; the activity coefficient (348.15 K) amounted to 1.27 ± 0.08; the activity coefficient (358.15 K) was found to be 1.18 ± 0.08.

With `CCO` [ethanol] + CCCCC[N+]1(C)CCCCC1.O=S(=O)([N-]S(=O)(=O)C(F)(F)F)C(F)(F)F, the activity coefficient (308.15 K) turned out to be 1.79 ± 0.12; the activity coefficient (318.15 K) is 1.58 ± 0.1; the activity coefficient (328.15 K) worked out at 1.46 ± 0.1; the activity coefficient (338.15 K) amounted to 1.35 ± 0.09; the activity coefficient (348.15 K) came out at 1.27 ± 0.08; the activity coefficient (358.15 K) is 1.18 ± 0.08.

Turning to `CCc1ccccc1` [ethylbenzene] + CCCCCC[N+]1(C)CCCCC1.O=S(=O)([N-]S(=O)(=O)C(F)(F)F)C(F)(F)F, the activity coefficient reads like this: (308.15 K) 0.864 ± 0.055; (318.15 K) 0.894 ± 0.057; (328.15 K) 0.909 ± 0.058; (338.15 K) 0.934 ± 0.059; (348.15 K) 0.957 ± 0.06; (358.15 K) 0.969 ± 0.061.

With `CCc1ccccc1` [ethylbenzene] + CCCCC[N+]1(C)CCCCC1.O=S(=O)([N-]S(=O)(=O)C(F)(F)F)C(F)(F)F, the activity coefficient was determined as 1.26 ± 0.08 (308.15 K); 1.31 ± 0.09 (318.15 K); 1.35 ± 0.09 (328.15 K); 1.37 ± 0.09 (338.15 K); 1.42 ± 0.09 (348.15 K); 1.43 ± 0.09 (358.15 K).

With `CCCCCCC` [heptane] + CCCCCC[N+]1(C)CCCCC1.O=S(=O)([N-]S(=O)(=O)C(F)(F)F)C(F)(F)F, the activity coefficient runs as follows: (308.15 K) 10.2 ± 0.7; (318.15 K) 9.81 ± 0.67; (328.15 K) 9.38 ± 0.64; (338.15 K) 8.99 ± 0.61; (348.15 K) 8.68 ± 0.59; (358.15 K) 8.2 ± 0.56.

Source of the values: the NIST ThermoML archive (doi:10.1016/j.jct.2013.01.005).
